# Molecular target: T1, α-glucosidase (Saccharomyces cerevisiae, UniProt P53341)
# T1 construct: purchased Sigma
# Assay: α-glucosidase inhibition test (pNPG substrate, OD 405 nm); CI calculated with CompuSyn (Chou-Talalay)
# Format: biochemical
# Settings: for Inhibition rate: single compound
# Description: [drawing 3] • α-glucosidase (coming from Saccharomyces cerevisiae, Sigma); • 4-nitrophenyl-α-D-glucopyranoside (pNPG, TOKYO Chemica Industry Co., LTD); • acarbose (Acarbose, TOKYO Chemica Industry Co., LTD); • hesperetin, galangin, and formononetin (BEIJING Solarbio Technology Co., LTD); • Millipore Simplicity water purification system (Millipore, France); • sodium phosphate salt buffer solution (pH 6.8, 0.1 mol L-1); and • microplate reader TECAN infinite M200 PRO (Teacan Group Ltd., Swizerland).
# an α-glucosidase solution with a concentration being 0.25 U/mL and a substrate p-nitrophenyl-α-D-glucopyranoside (pNPG) solution with a concentration being 5 mmol/mL were prepared by using a PBS buffer solution (0.1 mol/L pH 6.8).
# 100 μL of sample solution was added to each hole, then 40 μL of α-glucosidase (0.25 U/mL) was added, reacted for 15 min at 37° C., and then 60 μL of substrate p-nitrophenyl-α-D-glucopyranoside (5 mmol/mL) was added; and after placed at 37° C. to react for 15 min, a microplate reader measured at a wave length of 405 nm.
# CI values are calculated according to CompuSyn software to evaluate synergistic effect among drugs.
# T1 sequence (P53341 whole entry): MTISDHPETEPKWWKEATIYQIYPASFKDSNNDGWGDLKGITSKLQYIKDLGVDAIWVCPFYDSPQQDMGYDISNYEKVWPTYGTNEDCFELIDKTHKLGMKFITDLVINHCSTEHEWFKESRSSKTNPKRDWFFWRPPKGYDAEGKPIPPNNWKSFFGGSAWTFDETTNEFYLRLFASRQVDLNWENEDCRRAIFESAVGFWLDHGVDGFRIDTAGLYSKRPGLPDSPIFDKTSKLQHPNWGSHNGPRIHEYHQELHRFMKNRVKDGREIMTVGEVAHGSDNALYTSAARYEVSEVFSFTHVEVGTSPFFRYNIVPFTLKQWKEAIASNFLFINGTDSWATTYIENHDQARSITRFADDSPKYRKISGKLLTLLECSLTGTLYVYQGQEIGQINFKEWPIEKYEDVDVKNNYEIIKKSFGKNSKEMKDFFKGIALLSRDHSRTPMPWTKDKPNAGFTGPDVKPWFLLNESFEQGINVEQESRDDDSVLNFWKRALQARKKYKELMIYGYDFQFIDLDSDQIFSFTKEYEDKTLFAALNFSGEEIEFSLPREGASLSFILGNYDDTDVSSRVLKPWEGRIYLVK
compound,measurement,setting,value
COc1c(-c2ccc(O)c(O)c2)oc2cc(O)cc(O)c2c1=O [3-O-methyl quercetin],inhibition at 2 µg/mL,read-out: Inhibition rate,46.2 ± 1.2%
O=c1cc(-c2ccc(O)cc2)oc2cc(O)cc(O)c12 [Apigenin],inhibition at 6 µg/mL,read-out: Inhibition rate,56.1 ± 4.4%
O=c1cc(-c2ccccc2)oc2cc(O)c(O)c(O)c12 [Baicalein],inhibition at 10 µg/mL,read-out: Inhibition rate,38.8 ± 3.3%
COc1ccc(-c2coc3cc(O)cc(O)c3c2=O)cc1 [Biochanin A],inhibition at 0.7 µg/mL,read-out: Inhibition rate,38.5 ± 2.1%
COc1ccc(-c2coc3cc(O)ccc3c2=O)cc1O [Calycosin],inhibition at 6 µg/mL,read-out: Inhibition rate,56.6 ± 4.3%
Oc1cc(O)c2cc(O)c(-c3ccc(O)c(O)c3)[o+]c2c1 [Cyanidin],inhibition at 0.7 µg/mL,read-out: Inhibition rate,47.5 ± 1.4%
O=c1c(-c2ccc(O)cc2)coc2cc(O)ccc12 [Daidzein],inhibition at 8 µg/mL,read-out: Inhibition rate,44.5 ± 2.5%
Oc1cc(O)c2cc(O)c(-c3cc(O)c(O)c(O)c3)[o+]c2c1 [Delphinidin],inhibition at 1 µg/mL,read-out: Inhibition rate,50.2 ± 4.3%
O=C1c2c(O)cc(O)cc2OC(c2ccc(O)cc2O)C1O (stereo not shown) [Dihydromorin],inhibition at 15 µg/mL,read-out: Inhibition rate,25.7 ± 4.7%
O=c1c(O)c(-c2ccc(O)c(O)c2)oc2cc(O)ccc12 [Fisetin],inhibition at 6 µg/mL,read-out: Inhibition rate,46.5 ± 2.3%
COc1ccc(-c2coc3cc(O)ccc3c2=O)cc1 [Formononetin],inhibition at 20 µg/mL,read-out: Inhibition rate,60.1 ± 5.3%
same,inhibition at 30 µg/mL,read-out: Inhibition rate,65.2 ± 4.3%
O=c1c(O)c(-c2ccccc2)oc2cc(O)cc(O)c12 [Galangin],inhibition at 100 µg/mL,read-out: Inhibition rate,56.3 ± 4.5%
same,inhibition at 150 µg/mL,read-out: Inhibition rate,84.4 ± 7.5%
COc1cc(O)c2c(=O)cc(-c3ccc(O)cc3)oc2c1 [Genkwanin],inhibition at 35 µg/mL,read-out: Inhibition rate,70.1 ± 5.5%
COc1ccc(C2CC(=O)c3c(O)cc(O)cc3O2)cc1O (stereo not shown) [Hesperetin],inhibition at 30 µg/mL,read-out: Inhibition rate,45.2 ± 3.2%
same,inhibition at 50 µg/mL,read-out: Inhibition rate,63.4 ± 4.2%
O=C(/C=C/c1ccc(O)cc1)c1ccc(O)cc1O [Isoliquiritigenin],inhibition at 4 µg/mL,read-out: Inhibition rate,35.2 ± 2.5%
COc1ccc(-c2oc3cc(O)cc(O)c3c(=O)c2O)cc1 [Kaempferide],inhibition at 5 µg/mL,read-out: Inhibition rate,30.8 ± 1.3%
O=c1cc(-c2ccc(O)c(O)c2)oc2cc(O)cc(O)c12 [Luteolin],inhibition at 1 µg/mL,read-out: Inhibition rate,45.5 ± 2.7%
O=c1c(O)c(-c2ccc(O)cc2O)oc2cc(O)cc(O)c12 [Morin],inhibition at 1 µg/mL,read-out: Inhibition rate,41.2 ± 2.7%
O=c1c(O)c(-c2cc(O)c(O)c(O)c2)oc2cc(O)cc(O)c12 [Myricetin],inhibition at 1 µg/mL,read-out: Inhibition rate,41.2 ± 1.5%
O=C1C[C@@H](c2ccc(O)cc2)Oc2cc(O)cc(O)c21 [Naringenin],inhibition at 25 µg/mL,read-out: Inhibition rate,50.5 ± 4.3%
O=C(CCc1ccc(O)cc1)c1c(O)cc(O)cc1O [Phloretin],inhibition at 8 µg/mL,read-out: Inhibition rate,46.3 ± 2.7%
COc1c(-c2ccc(O)c(O)c2)oc2cc(O[C@@H]3OC(C)[C@@H](O)C(O)C3O)cc(O)c2c1=O (stereo partly shown) [Vincetoxicoside],inhibition at 12 µg/mL,read-out: Inhibition rate,48.7 ± 2.1%
C[C@H]1O[C@H](O[C@H]2[C@H](O)[C@@H](O)[C@@H](O[C@H]3[C@H](O)[C@@H](O)C(O)O[C@@H]3CO)O[C@@H]2CO)[C@H](O)[C@@H](O)[C@@H]1N[C@H]1C=C(CO)[C@@H](O)[C@H](O)[C@H]1O (stereo partly shown) [acarbose],inhibition at 350 µg/mL,read-out: Inhibition rate,46.2 ± 3.5%
Chrysin,Inhibition rate,100 μg/mL,51.2 ± 5.5%
Vitexin,Inhibition rate,10 μg/mL,29.2 ± 1.4%
